Assay results reported in patent US11845724B2, “USP30 inhibitors and uses thereof” (Vincere Biosciences, Inc., priority 2019, dated 2023).
Where two headings read alike, the source gives them in different places.

What was measured:
USP30 [1] = target: T1, USP30 (Homo sapiens (Human), UniProt Q70CQ3); assay: Dundee MALDI-TOF mass spectrometry assay (IC50); assay type: biochemical; conditions: USP30 25 ng/μl, K48-linked diubiquitin 5.6 μM
How it was run: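 USP30 (25 ng/μl) preincubated with compound 5 min at RT in Tris/BSA/DTT buffer, then K48-linked diubiquitin (5.6 μM) added for 45 min at RT. Stopped with 2% TFA; cleavage quantified by MALDI-TOF mass spectrometry to give IC50.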

USP30 [2] = target: T1, USP30; assay: Dundee MALDI-TOF mass spectrometry assay (% DUB activity remaining at 1 μM); assay type: biochemical; conditions: % DUB activity remaining at compound concentration of 1 μM; avg; read-out: Dundee % Activity at 1 μM (avg in vitro MS assay)
Method: Compounds were tested in a MALDI-TOF assay based on the paper by Ritorto et al. (Ritorto et al. Screening of DUB activity and specificity by MALDI-TOF mass spectrometry. Nat. Commun. 5:4763).
USP30 (25 ng/μl) tested against K48-linked diubiquitin (5.6 μM). USP30 was diluted in a buffer containing 40 mM Tris, 0.01% BSA, 1 mM DTT and K48 in 40 mM Tris, 0.01% BSA.
The compounds were pre-incubated with the USP30 for 5 mins at room temp before the K48 dimer addition. The assay mixture was then incubated for 45 mins at room temp. The assay was stopped by the addition of TFA to a final concentration of 2% (v/v).
Acidified samples of the DUB assays were mixed with 0.5 mM 15N-ubiquitin and then with one part of 2% (v/v) TFA and one part of 2,5 DHAP matrix solution (7.6 mg of 2,5 DHAP in […] ethanol and […] of an aqueous 12 mg ml 1 diammonium hydrogen citrate). Then 250 nl of these solutions were spotted onto an MTP AnchorChip 1,536 TF and this is analysed on the Bruker rapifleX MALDI-TOF.
Table 22 presents the Dundee MALDI-TOF values expressed as % DUB activity remaining at a compound concentration of 1 μM.

[3] = target: recombinant USP30 (amino acids 57-517 of the human sequence) (Homo sapiens (Human), UniProt Q70CQ3); assay: In vitro USP30 biochemical assay (Ubiquitin-Rhodamine)
Sequence of recombinant USP30 (amino acids 57-517 of the human sequence) (Q70CQ3 57-517): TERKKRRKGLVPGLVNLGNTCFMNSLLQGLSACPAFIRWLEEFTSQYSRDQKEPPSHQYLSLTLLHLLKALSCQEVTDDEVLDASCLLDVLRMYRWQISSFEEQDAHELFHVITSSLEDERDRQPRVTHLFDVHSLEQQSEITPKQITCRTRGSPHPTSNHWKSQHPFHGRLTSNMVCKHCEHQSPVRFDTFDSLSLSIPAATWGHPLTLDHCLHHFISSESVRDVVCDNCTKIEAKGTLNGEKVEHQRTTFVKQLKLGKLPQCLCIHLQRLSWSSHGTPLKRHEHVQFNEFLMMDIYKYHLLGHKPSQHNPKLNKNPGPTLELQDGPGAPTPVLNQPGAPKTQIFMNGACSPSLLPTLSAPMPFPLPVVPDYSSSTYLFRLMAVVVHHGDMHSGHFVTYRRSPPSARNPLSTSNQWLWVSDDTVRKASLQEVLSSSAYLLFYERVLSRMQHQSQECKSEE

[4] = Dundee IC50 μM (avg in vitro MS assay)
[5] = avg, read-out: Dundee IC50 μM (avg in vitro MS assay)
[6] = read-out: USP30 IC50 μM (avg), Ubiquitin-Rhodamine substrate 25 nM, 1.5 nM recombinant USP30
[7] = USP30 IC50 μM (avg), Ubiquitin-Rhodamine substrate 25 nM, 1.5 nM recombinant USP30

T1 sequence (Q70CQ3 whole entry): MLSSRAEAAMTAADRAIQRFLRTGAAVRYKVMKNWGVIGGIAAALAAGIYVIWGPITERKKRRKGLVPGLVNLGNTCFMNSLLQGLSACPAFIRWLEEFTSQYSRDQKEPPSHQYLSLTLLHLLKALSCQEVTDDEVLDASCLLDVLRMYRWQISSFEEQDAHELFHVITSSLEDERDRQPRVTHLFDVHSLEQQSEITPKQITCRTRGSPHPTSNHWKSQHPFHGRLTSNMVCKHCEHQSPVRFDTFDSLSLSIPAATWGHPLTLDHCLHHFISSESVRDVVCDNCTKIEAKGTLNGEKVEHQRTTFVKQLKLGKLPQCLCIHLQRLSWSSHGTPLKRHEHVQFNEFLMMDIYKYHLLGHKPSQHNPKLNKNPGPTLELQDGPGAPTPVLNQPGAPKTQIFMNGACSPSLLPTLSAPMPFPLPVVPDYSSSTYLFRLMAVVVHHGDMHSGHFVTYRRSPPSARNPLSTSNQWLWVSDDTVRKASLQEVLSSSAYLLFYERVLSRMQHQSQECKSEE

Row | Compound | IC50 (USP30 [1]; [4]) [µM] | activity at 1 µM (USP30 [2]) [%] | IC50 (USP30 [1]; [5]) [µM] | IC50 [3, 6] [µM] | IC50 [3, 7] [µM]
1 | CC(C)(C)NS(=O)(=O)c1ccc(NC(=O)C2(NC(=O)c3ccc(F)cc3)CC2c2ccccc2)cc1 (racemic) [Compound I-82, racemic-N-(Z)-(1-(4-(N-tert-butylsulfamoyl)phenylcarbamoyl)-2-phenylcyclopropyl)-4-fluorobenzamide] | > 1 | > 75 |  |  | 
2 | CC(C)(C)NS(=O)(=O)c1ccc(NC(=O)C2(NC(=O)c3ccc(F)cc3)CC2c2ccccc2)cc1 (racemic) [Compound I-83, racemic-N-((E)-1-(4-(N-tert-butylsulfamoyl)phenylcarbamoyl)-2-phenylcyclopropyl)-4-fluorobenzamide] |  | > 75 | > 1 |  | 
3 | CC(C)(C)N[S+]([O-])c1ccc(NC(=O)[C@H](Cc2ccccc2)NC(=O)c2ccc(F)cc2)cc1 (stereo partly drawn) [Compound I-15, N-((2S)-1-(4-(N-tert-Butylsulfinamoyl)phenylamino)-1-oxo-3-phenylpropan-2-yl)-4-fluorobenzamide] |  | 25 to 50 | 0.05 to 1 |  | 
4 | CC(C)(C)N=S(C)(=O)c1ccc(NC(=O)[C@H](Cc2ccccc2)NC(=O)c2ccc(F)cc2)cc1 (stereo partly drawn) [Compound I-17, N-((2S)-1-((4-(N-(tert-butyl)-S-methylsulfonimidoyl)phenyl)amino)-1-oxo-3-phenylpropan-2-yl)-4-fluorobenzamide] | > 1 | > 75 |  |  | 
5 | CC(C)(C)NC(c1ccc(NC(=O)[C@H](Cc2ccccc2)NC(=O)c2ccc(F)cc2)cc1)C(F)(F)F (stereo partly drawn) [Compound I-18, N-((2S)-1-(4-(1-(tert-butylamino)-2,2,2-trifluoroethyl)phenylamino)-1-oxo-3-phenylpropan-2-yl)-4-fluorobenzamide] | > 10 | 50 to 75 |  | > 10 | 
6 | CC(C)(C)NS(=O)(=O)c1ccc(NC(=O)C2(NC(=O)c3ccc(F)cc3)Cc3ccccc3C2)cc1 [Compound I-19, N-(4-(N-tert-butylsulfamoyl)phenyl)-2-(4-fluorobenzamido)-2,3-dihydro-1H-indene-2-carboxamide] |  | 25 to 50 | 0.05 to 1 |  | 0.05 to 1
7 | C[C@@H](NS(=O)(=O)c1ccc(NC(=O)[C@H](Cc2ccccc2)NC(=O)c2ccc(F)cc2)cc1)C(F)(F)F [Compound I-26, 4-fluoro-N-((S)-1-oxo-3-phenyl-1-(4-(N-((R)-1,1,1-trifluoropropan-2-yl)sulfamoyl)phenylamino)propan-2-yl)benzamide] |  | 0 to 25 | < 0.05 |  | 0.05 to 1
8 | C[C@H](NS(=O)(=O)c1ccc(NC(=O)[C@H](Cc2ccccc2)NC(=O)c2ccc(F)cc2)cc1)C1CC1 [Compound I-27, N-((S)-1-(4-(N-((S)-1-cyclopropylethyl)sulfamoyl)phenylamino)-1-oxo-3-phenylpropan-2-yl)-4-fluorobenzamide] |  | 0 to 25 | < 0.05 |  | 
9 | CC[C@H](C)NS(=O)(=O)c1ccc(NC(=O)[C@H](Cc2ccccc2)NC(=O)c2ccc(F)cc2)cc1 [Compound I-28, N-((S)-1-((4-(N-((S)-sec-butyl)sulfamoyl)phenyl)amino)-1-oxo-3-phenylpropan-2-yl)-4-fluorobenzamide] |  | 0 to 25 | < 0.05 |  | 
10 | CC(C)(C)NC(=O)c1ccc(NC(=O)[C@H](Cc2ccccc2)NC(=O)c2ccc(F)cc2)cc1 [Compound I-29, (S)-N-tert-butyl-4-(2-(4-fluorobenzamido)-3-phenylpropanamido)benzamide] | > 1 | > 75 |  |  | 
11 | CN(C(=O)[C@H](Cc1ccccc1)NC(=O)c1ccc(F)cc1)c1ccc(S(=O)(=O)NC(C)(C)C)cc1 [Compound I-36, (S)-N-(1-((4-(N-tert-butylsulfamoyl)phenyl)(methyl)amino)-1-oxo-3-phenylpropan-2-yl)-4-fluorobenzamide] |  | > 75 | > 1 |  | 
12 | CC(C)(C)NS(=O)(=O)c1ccc(NC[C@@H](O)[C@H](Cc2ccccc2)NC(=O)c2ccc(F)cc2)cc1 [Compound I-42, N-((2S,3R)-4-(4-(N-tert-butylsulfamoyl)phenylamino)-3-hydroxy-1-phenylbutan-2-yl)-4-fluorobenzamide] |  | > 75 | 1 to 10 |  | 
13 | CC(C)(C)NS(=O)(=O)c1ccc(NC[C@H](Cc2ccccc2)NC(=O)c2ccc(F)cc2)cc1 [Compound I-44, (S)-N-(1-(4-(N-tert-butylsulfamoyl)phenylamino)-3-phenylpropan-2-yl)-4-fluorobenzamide] |  | > 75 | > 1 |  | 
14 | CC(C)(C)NS(=O)(=O)c1ccc(OC[C@H](Cc2ccccc2)NC(=O)c2ccc(F)cc2)cc1 [Compound I-45, (S)-N-(1-(4-(N-tert-butylsulfamoyl)phenoxy)-3-phenylpropan-2-yl)-4-fluorobenzamide] |  | > 75 | > 1 |  | 
15 | CC(C)(C)NS(=O)(=O)c1ccc(NC(=O)[C@H](Cc2ccccc2)OCc2ccc(F)cc2)cc1 [Compound I-46, (S)-N-(4-(N-tert-butylsulfamoyl)phenyl)-2-(4-fluorobenzyloxy)-3-phenylpropanamide] |  | > 75 | > 1 |  | 
16 | CCNS(=O)(=O)c1ccc(NC(=O)C2(NC(=O)c3ccccc3)CCc3ccccc3C2)cc1 (centres unmarked) [Compound I-47, 2-benzamido-N-(4-(N-ethylsulfamoyl)phenyl)-1,2,3,4-tetrahydronaphthalene-2-carboxamide] |  | > 75 | > 1 |  | 
17 | CC(C)(C)NS(=O)(=O)c1ccc(NC(=O)C2(NC(=O)c3ccccc3)CCc3ccccc3C2)cc1 (centres unmarked) [Compound I-48, 2-benzamido-N-(4-(N-tert-butylsulfamoyl)phenyl)-1,2,3,4-tetrahydronaphthalene-2-carboxamide] |  | > 75 | > 1 |  | 
18 | CCNS(=O)(=O)c1ccc(NC(=O)C2Cc3ccccc3CN2C(=O)c2ccc(F)cc2)cc1 (centres unmarked) [Compound I-49, N-(4-(N-ethylsulfamoyl)phenyl)-2-(4-fluorobenzoyl)-1,2,3,4-tetrahydroisoquinoline-3-carboxamide] |  | > 75 | 1 to 10 |  | 
19 | CC(C)(C)NS(=O)(=O)c1ccc(NC(=O)C2Cc3cccnc3N2C(=O)c2ccc(F)cc2)cc1 (centres unmarked) [Compound I-57, N-(4-(N-tert-butylsulfamoyl)phenyl)-1-(4-fluorobenzoyl)-2,3-dihydro-1H-pyrrolo[2,3-b]pyridine-2-carboxamide] | > 1 | > 75 |  |  | 
20 | CC(C)(C)NS(=O)(=O)c1ccc(NC(=O)C2Cc3ncccc3CN2C(=O)c2ccc(F)cc2)cc1 (centres unmarked) [Compound I-60, N-(4-(N-tert-butylsulfamoyl)phenyl)-6-(4-fluorobenzoyl)-5,6,7,8-tetrahydro-1,6-naphthyridine-7-carboxamide] |  | > 75 |  | > 10 | 
21 | O=C(N[C@@H](Cc1cccnc1)C(=O)Nc1ccc(S(=O)(=O)NC2COC2)cc1)c1ccc(F)cc1 [Compound I-66, (S)-4-fluoro-N-(1-(4-(N-oxetan-3-ylsulfamoyl)phenylamino)-1-oxo-3-(pyridin-3-yl)propan-2-yl)benzamide] |  | 0 to 25 | 0.05 to 1 |  | 
22 | CC(C)(C)NS(=O)(=O)c1cccc(NC(=O)[C@H](Cc2ccccc2)NC(=O)c2ccc(F)cc2)c1 [Compound I-68, (S)-N-(1-(3-(N-tert-butylsulfamoyl)phenylamino)-1-oxo-3-phenylpropan-2-yl)-4-fluorobenzamide] | > 1 | > 75 |  |  | 
